Measured values reported in publication PMC6273843, “Synthesis and Selective Cytotoxic Activities on Rhabdomyosarcoma and Noncancerous Cells of Some Heterocyclic Chalcones” (Molecules, 2016).
Read-outs that look alike come from different tables or passages of the source.

Legend:
[1] = test system: Human muscle rhabdomyosarcoma (RMS) cell line (ATCC CCL-136); assay: MTT cell proliferation (cytotoxicity) assay on RMS cells; format: cell-based; conditions: for IC50: MTT, 24 h incubation with sample
[2] = MTT cytotoxicity assay on noncancerous LLC-PK1 cells; format: cell-based, Pig; conditions: pig, LLC-PK1 pig kidney epithelial cells, read-out: % Cell Viability on Noncancer LLC-PK1 cells
Description: (§1) Pig Kidney Epithelial (LLC-PK1) cell line (ATCC® CL-101™) was a generous gift of Prof. Jeong Hill Park, Research Institute of Pharmaceutical Science (College of Pharmacy, Seoul National University, Seoul 151-172, Korea).
(§2) RMS or LLC-PK1 cells were seeded and cultured in EMEM medium (Gibco, Waltham, MA, USA) supplemented with 10% fetal calf serum (FCS) (Gibco), 2 mM L-glutamine, 100 IU/mL penicillin and 100 µg/mL streptomycin (Sigma-Aldrich, St. Louis, MO, USA) in a humidified atmosphere of 5% CO2 at 37 °C.
(§3) The samples were dissolved in dimethyl sulfoxide (DMSO) at 10 mM and then diluted with culture medium to get three concentrations of 100; 50; 10 µM or 25; 12.5; 2.5 µM for cell proliferation assays. […] DMSO at different concentrations or was used as a blank control. Paclitaxel (Anzatax®, Mayne Pharma, Australia) was used as the reference compound at the concentration of 1, 5 and 10 µM (directly dissolved in culture medium).
(§4) The cells were cells were seeded in 96-well plates at 4.2 × 10^4 cell/cm^2. After 24 h of incubation at 37 °C, 5% CO2, 100 μL of chalcone samples at tested concentrations, reference compound, and blank control (DMSO) was added and incubated for 24 hours at 37 °C, 5% CO2.
(§5) Cell viability was evaluated as mitochondrial succinate dehydrogenase (SDH) activity, a marker of viable cells, using MTT test as described by Denizot and Lang. Briefly, SDH activity was detected after 3 hours incubation in culture medium without FCS containing 0.05 mg/mL MTT (3-4,5-dimethyl-thiazol-2-yl-2,5 diphenyl-tetrazolium bromide, Sigma-Aldrich), which is converted into formazan dissolved in acidified isopropanol (Merck, Darmstadt, Germany) by agitation for 10 min at room temperature. The produced purple solution was spectrophotometrically measured at 570 nm on Multiskan™ FC microplate Photometer (Thermo Scientific, Waltham, MA, USA).
(§6) Each assay was done in triplicate and the standard deviation of absorbance was less than 10% of the mean. The results were expressed as Mean + SD of six cultures of one representative experiment and statistically analyzed by Mann-Whitney test with SPSS 22.0 for Windows software. Threshold of significance was set at p < 0.05.
(§7) The IC50 values were calculated based on the linear regression between the concentrations of testing compound and the inhibition percentages of cells. The chalcone compounds with significant potential against RMS cells (IC50 < 20 μM) were then tested for their toxicity on LLC-PK1 cells.

[3] = test system: Pig Kidney Epithelial (LLC-PK1) cell line (ATCC CL-101); assay: as above; format: cell-based; conditions: LLC-PK1 cells
Description: as §1, §2, §3, §4, §5, §6, §7

[4] = MTT cytotoxicity assay on noncancerous LLC-PK1 cells; format: cell-based; conditions: pig, LLC-PK1 pig kidney epithelial cells, read-out: % Cell Viability on Noncancer LLC-PK1 cells

Question: Which IC50 ([1]; Homo sapiens, 24 h) does the source give for `CN(C)c1ccc(/C=C/C(=O)c2ccco2)cc1` [Compound 15] here?
Answer: 77.3 ± 4.69 µM

Question: For “(E)-3-(Pyridin-3-yl)-1-(2-hydroxyphenyl)prop-2-en-1-one [Compound 18]”, which IC50 [1] is on record?
Answer: 91.1 ± 2.45 µM

Question: Which results are given for `COc1ccc(/C=C/C(=O)c2ccc3c(c2)Nc2ccccc2S3)c(OC)c1` [Compound 8, (E)-3-(2,4-Dimethoxyphenyl)-1-(10H-phenothiazin-2-yl)prop-2-en-1-one]?
Answer: IC50 ([1]; Homo sapiens, 24 h): < 20 µM; IC50 [1]: 19.7 ± 1.63 µM; viability at 24 h, 10 µM ([2]; 10 μM): 97.3 ± 10.2%; viability at 24 h, 50 µM [2]: 103 ± 6.4%; viability at 24 h, 100 µM [2]: 105 ± 5.4%; toxicity on the noncancerous LLC-PK1 cell line (in words) [3]: almost complete absence of toxicity; melting point: 178 to 179 °C

Question: Which IC50 ([1]; Homo sapiens, 24 h) does the source give for `O=C(/C=C/c1ccccc1Cl)c1ccc2c(c1)Nc1ccccc1S2` [Compound 7, (E)-3-(2-Chlorophenyl)-1-(10H-phenothiazin-2-yl)prop-2-en-1-one] here?
Answer: < 20 µM

Question: What about the IC50 [1] of the same compound?
Answer: 18 ± 1.63 µM

Question: And the viability at 24 h, 10 µM ([2]; 10 μM)?
Answer: 100 ± 6.5%

Question: What about the viability at 24 h, 50 µM [2] of the same compound?
Answer: 109 ± 10.9%

Question: And the viability at 24 h, 100 µM [2]?
Answer: 94.8 ± 7.6%

Question: What about the “toxicity on the noncancerous LLC-PK1 cell line (in words)” value [3] of the same compound?
Answer: almost complete absence of toxicity

Question: What about the melting point of the same compound?
Answer: 202 to 203 °C

Question: For `O=C(/C=C/c1cccc(Br)c1)c1ccc2c(c1)Nc1ccccc1S2` [Compound 3, (E)-3-(3-Bromophenyl)-1-(10H-phenothiazin-2-yl)prop-2-en-1-one], which melting point is on record?
Answer: 230 to 232 °C

Question: With `CN(C)c1ccc(/C=C/C(=O)c2ccc3c(c2)Nc2ccccc2S3)cc1` [Compound 1, (E)-3-(4-(N,N-Dimethylamino)phenyl)-1-(10H-phenothiazin-2-yl)prop-2-en-1-one] as the compound, how does the melting point read?
Answer: 232 to 233 °C

Question: With `COc1cc(/C=C/C(=O)c2cccs2)cc(OC)c1OC` [Compound 13] as the compound, how does the IC50 ([1]; Homo sapiens, 24 h) read?
Answer: 26.6 ± 1.42 µM

Question: Which results are given for `COc1cc(/C=C/C(=O)c2ccco2)cc(OC)c1OC` [Compound 14]?
Answer: inhibition at 25 µM ([1]; Homo sapiens, 25 μM): 42.9%; inhibition at 50 µM ([1]; Homo sapiens, 50 μM): 26.5%; inhibition at 100 µM ([1]; Homo sapiens, 100 μM): 15.1%; IC50 ([1]; Homo sapiens, 24 h): 29.1 ± 1.82 µM

Question: With “(E)-3-(Pyridin-2-yl)-1-(2-hydroxyphenyl)prop-2-en-1-one [Compound 17]” as the compound, how does the IC50 [1] read?
Answer: 92.9 ± 6.14 µM

Question: For `O=C(/C=C/c1ccccc1O)c1cccs1` [Compound 11], which IC50 ([1]; Homo sapiens, 24 h) is on record?
Answer: 48.8 ± 2.42 µM

Question: Which melting point does the source give for `O=C(/C=C/c1ccc(OCc2ccccc2)cc1)c1ccc2c(c1)Nc1ccccc1S2` [Compound 2, (E)-3-(4-Benzyloxyphenyl)-1-(10H-phenothiazin-2-yl)prop-2-en-1-one] here?
Answer: 215 to 216 °C

Question: Which results are given for `COc1cc(/C=C/C(=O)c2ccccn2)cc(OC)c1OC` [Compound 16]?
Answer: IC50 ([1]; Homo sapiens, 24 h): < 20 µM; IC50 [1]: 19.6 ± 1.04 µM; viability at 24 h, 10 µM ([2]; 10 μM): 99.1 ± 3.1%; viability at 24 h, 50 µM [2]: 102 ± 12.1%; viability at 24 h, 100 µM [2]: 104 ± 6.5%; toxicity on the noncancerous LLC-PK1 cell line (in words) [3]: almost complete absence of toxicity

Question: What does the source list for `O=C(/C=C/c1cccs1)c1ccc2c(c1)Nc1ccccc1S2` [Compound 9, (E)-3-(Thiophen-2-yl)-1-(10H-phenothiazin-2-yl)prop-2-en-1-one]?
Answer: IC50 ([1]; Homo sapiens, 24 h): < 20 µM; IC50 [1]: 12.5 ± 1.74 µM; viability at 24 h, 10 µM ([2]; 10 μM): 98.8 ± 10.6%; viability at 24 h, 50 µM [2]: 98.2 ± 7.3%; viability at 24 h, 100 µM [2]: 97.1 ± 5%; toxicity on the noncancerous LLC-PK1 cell line (in words) [3]: almost complete absence of toxicity; melting point: 229 to 230 °C

Question: For `O=C(/C=C/c1ccc(Cl)cc1)c1cccs1` [Compound 10], which IC50 ([1]; Homo sapiens, 24 h) is on record?
Answer: 49.6 ± 3.2 µM

Question: For `COc1ccc(C(=O)/C=C/c2cccnc2)c(O)c1` [Compound 20, (E)-3-(Pyridin-3-yl)-1-(2-hydroxy-4-methoxyphenyl)prop-2-en-1-one], which IC50 ([1]; Homo sapiens, 24 h) is on record?
Answer: 20.8 ± 1.33 µM

Question: And the melting point?
Answer: 128 to 129 °C

Question: For `CC(=O)O[C@H]1C(=O)[C@@]2(C)[C@H]([C@H](OC(=O)c3ccccc3)[C@]3(O)C[C@H](OC(=O)[C@H](O)[C@@H](NC(=O)c4ccccc4)c4ccccc4)C(C)=C1C3(C)C)[C@]1(OC(C)=O)CO[C@@H]1C[C@@H]2O` [Paclitaxel, reference compound], which IC50 ([1]; Homo sapiens, 24 h) is on record?
Answer: 10.8 ± 0.47 µM

Question: And the viability at 24 h, 10 µM ([2]; 10 μM (paclitaxel reference))?
Answer: 108 ± 8.2%

Question: And the viability at 24 h, 2 µM ([4]; 2 μM (paclitaxel reference))?
Answer: 103 ± 6%

Question: And the viability at 24 h, 20 µM ([4]; 20 μM (paclitaxel reference))?
Answer: 75 ± 3.6%

Question: For `COc1ccc(C(=O)/C=C/c2ccccn2)c(O)c1` [Compound 19, (E)-3-(Pyridin-2-yl)-1-(2-hydroxy-4-methoxyphenyl)prop-2-en-1-one], which IC50 ([1]; Homo sapiens, 24 h) is on record?
Answer: 26.6 ± 1.72 µM

Question: What about the melting point of the same compound?
Answer: 130 to 131 °C
